# In a melting point compilation (Tetko et al.; mined from patent text by program, amines drawn as free bases though some values may be those of a salt):
row,Compound,melting point [°C]
1,COc1ccccc1N1CCN(CCn2c(=O)c3sccc3n(CCC(=O)O)c2=O)CC1,215 to 216
2,N#Cc1ccc(C(=O)N2CCN(C(=O)C3CCN(c4ccncn4)CC3)CC2)cc1,192 to 193
3,O=C(c1ccccc1)c1cc([N+](=O)[O-])ccc1OCCO,124 to 126
4,CCCCCC(C)Oc1cc(O)c2c(c1)OC(C)(C)C1CCC(=O)C=C21 (centres undefined),185 to 189
5,COC(=O)c1n[nH]c(C(C)C)c1[N+](=O)[O-],78 to 80
6,CCOC(=O)CNC(=O)Oc1c(C)n(CCOC)ccc1=O,134 to 135
7,O=C1CC(O)CN1S(=O)(=O)c1ccc(N2CCCCCC2)cc1 (centres undefined),170 to 172
8,Cn1c(CN)nc(-c2ccncn2)cc1=O,153 to 155
9,CCCC[C@]1(CC)CS(=O)(=O)c2cc(OC)c(Br)cc2[C@@H](c2ccccc2)N1,132 to 134
10,O=C(NC(=S)NCCSCc1c[nH]cn1)c1ccccc1,126 to 128
11,CC(C)(C)COc1ccc(NC(=O)c2cnn(-c3ccc(F)cc3)c2)cc1C#N,196 to 197
12,C[C@]1(CN2CCC(OCc3ccc(C(F)(F)F)cc3)CC2)Cn2cc([N+](=O)[O-])nc2O1,91 to 92
13,CCOC(=O)c1cc(=O)c2c(C)c(Cl)c(C)cc2o1,114 to 116
14,COC1CCN(c2ccn3nc(-c4ccccc4)c(-c4ccc(=O)n(C(C)C)n4)c3c2)CC1,177 to 178
15,CC(C)(C)c1cc(-c2nc(S)sc2-c2ccccc2)cc(C(C)(C)C)c1O,168 to 171
16,COC(=O)[C@H](CCCCNC(=O)c1ccc(C(=O)c2ccccc2)cc1)n1c2ccccc2c2ccccc21,65
17,CCCCCCCCCCCCCCCCCCOc1ccc(OCc2ccccc2)c(C(=O)OC)c1,52 to 54
18,O=C(N(Cc1cccnc1)c1ccc(F)cc1)C(F)(F)F,97 to 98
19,CCc1noc(-c2cn(-c3ccccc3OCc3ccc(Cl)cc3)cn2)n1,88 to 89
20,CCCCn1ccc(C=O)cc1=O,36 to 40
21,O=C(C(=O)c1ccc(Oc2cccc(Br)c2)cc1)c1ccccc1,75 to 76
22,Cc1cc2c(c3c1NC(=O)C(C)(C)C3)OC(C)(CBr)C2 (centres undefined),158 to 160
23,CC(=O)O[C@H]1CC[C@H](CCCCCC(=O)O)CC1,82 to 86
24,CCOc1cc(OCCOCc2ccccc2)cc2c1C(=O)N(COC(=O)c1c(Cl)cccc1Cl)S2(=O)=O,121 to 122
25,O=S(=O)(C(=CNc1ccc(Br)cn1)S(=O)(=O)c1ccccc1)c1ccccc1,177 to 179

row,Compound,melting point [°C]
1,CS(=O)c1ccc2c(c1)C(=O)C1(CC1)O2 (centres undefined),87 to 90
2,O=C(OC1CCN(Cc2ccccc2)CC1)c1ccc(Br)cc1,71 to 72
3,O=C1CCCN1c1ccc2c(c1)OCO2,89 to 91
4,Cc1ccccc1-c1c2c(cc3ccc4c(c13)OCO4)C(=O)NC2,252 to 255
5,COc1ccc(Cn2[nH]c(N)cc2=O)cc1,161
6,CN(C)C(=O)Nc1ccc(O)cc1,178 to 179
7,CCCCCCCCCCCCCCCCCCOc1cn(CCC)c(CO)cc1=O,120 to 121
8,COC(=O)c1cccn2ccnc12,67 to 69
9,COC(=O)[C@H]1CC[C@H](n2cnn(-c3ccc(C4CCN(C(=O)C(F)(F)F)CC4)cc3)c2=O)CC1,184 to 186
10,CCOCn1c(C(F)(F)F)c(C#N)c2ccc(Cl)c(Cl)c21,122 to 127
11,O=C(O)c1cccc(OC(F)(F)C(F)Cl)c1 (centres undefined),79 to 85
12,CCOC(=O)c1sc(S(C)(=O)=O)c2c1CCc1cnn(C)c1-2,140 to 141
13,CC1(CN2CCN(Cc3ccc(C(F)(F)F)cc3)C(=O)C2)Cn2cc([N+](=O)[O-])nc2O1 (centres undefined),88 to 93
14,c1ccc(Nc2nc(N3CCN(c4ccccc4)CC3)nc3c2SCC3)cc1,174 to 175
15,O=c1[nH]cnc2c(Br)sc(Br)c12,> 250
16,O=C(CC(=O)C1CCCCC1)C1CCCCC1,50 to 52
17,Cc1cc(C)c2cccc(OCc3c(Cl)ccc(S(=O)(=O)N4CCC[C@H]4C(=O)N4CCN(C(=O)c5ccc(C=NN)cn5)CC4)c3Cl)c2n1,150 to 155
18,CC12CCC(=O)C=C1CCC1C3CC(OCCO)C(O)(C(=O)CO)C3(C)CC(O)C12F (centres undefined),162 to 165
19,COc1ccc(Cc2ccc3c(c2)OCO3)cc1C,95
20,CSC(=NNCCCCc1ncc(Br)cc1C)NC#N,127 to 128
21,Oc1cccc(-c2ccc3cc(O)ccc3c2)c1,192 to 194
22,Cc1nc2ccccc2n(-c2ccc(CC(=O)O)cc2)c1=O,179 to 182
23,O=S(=O)(NCCc1ccc(OCc2nnn[nH]2)cc1)c1ccc(Cl)cc1,136
24,COC(=O)Cc1c(-c2ccccc2)nn(-c2ccccc2)c1-c1ccccc1,80.5 to 81.5
